# Measured values as given in BindingDB's records for patent US12384776 (Foghorn Therapeutics, 2025).
# Biological target: T1, Bromodomain-containing protein 9 (Human, UniProt Q9H8M2)
# T1 sequence (Q9H8M2 whole entry): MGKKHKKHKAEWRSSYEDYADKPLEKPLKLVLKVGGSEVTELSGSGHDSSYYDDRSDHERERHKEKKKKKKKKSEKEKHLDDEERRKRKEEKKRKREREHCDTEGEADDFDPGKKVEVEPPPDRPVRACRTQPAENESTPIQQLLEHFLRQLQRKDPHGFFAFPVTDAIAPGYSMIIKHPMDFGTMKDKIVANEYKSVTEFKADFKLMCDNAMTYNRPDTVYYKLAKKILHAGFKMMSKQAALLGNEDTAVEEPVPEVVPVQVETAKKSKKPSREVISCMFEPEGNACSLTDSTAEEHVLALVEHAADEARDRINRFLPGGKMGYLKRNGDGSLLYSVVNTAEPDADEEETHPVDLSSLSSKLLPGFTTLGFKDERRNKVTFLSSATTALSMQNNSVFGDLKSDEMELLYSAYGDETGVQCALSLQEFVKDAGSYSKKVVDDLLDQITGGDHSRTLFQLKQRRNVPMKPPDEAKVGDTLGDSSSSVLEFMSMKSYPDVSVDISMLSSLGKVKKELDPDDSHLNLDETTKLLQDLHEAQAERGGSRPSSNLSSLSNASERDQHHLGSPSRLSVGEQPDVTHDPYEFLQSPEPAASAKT
# Assay: SYO1 BRD9 NanoLuc Degradation Assay
# Conditions: read-out: IC50 (the source's name)
# Description: A stable SYO-1 cell line expressing 3×FLAG-NLuc-BRD9 was generated. On day 0 cells were seeded in 30 μL media into each well of 384-well cell culture plates. The seeding density was 8000 cells/well. On day 1, cells were treated with 30 nL DMSO or 30 nL of 3-fold serially DMSO-diluted compounds (10 points in duplicates with 1 μM as final top dose). Subsequently plates were incubated for 6 hours in a standard tissue culture incubator and equilibrated at room temperature for 15 minutes. Nanoluciferase activity was measured by adding 15 μL of freshly prepared Nano-Glo Luciferase Assay Reagent (Promega N1130), shaking the plates for 10 minutes and reading the bioluminescence using an EnVision reader.
row,SMILES,DC50
1,"CNC(=O)N1CCc2c(-c3cc(OC)c(CN4CCN(C5CN(c6ccc7c(c6)C(=O)N(C6CCC(=O)NC6=O)C7=O)C5)CC4)c(OC)c3)cn(C)c(=O)c2C1 (stereo unspecified) [US12384776, Compound D164]",< 10 nM
2,"CNC(=O)N1CCc2c(-c3cc(OC)c(CN4CCC5(CCN(c6ccc7c(c6)C(=O)N(C6CCC(=O)NC6=O)C7=O)C5)C4)c(OC)c3)cn(C)c(=O)c2C1 (stereo unspecified) [US12384776, Compound D162]",< 10 nM
3,"CNC(=O)N1C=Cc2c(-c3cc(OC)c(CN4CCC(CN5CCC6(CC5)CN(c5ccc7c(c5)C(=O)N(C5CCC(=O)NC5=O)C7)C6)C(F)(F)C4)c(OC)c3)cn(C)c(=O)c2C1 (stereo unspecified) [US12384776, Compound D335]",< 10 nM
4,"COc1cc(-c2cn(C)c(=O)c3c2CCN(C(=O)NC2CCC24CCN(CCOc2ccc5c(c2)C(=O)N(C2CCC(=O)NC2=O)C5=O)CC4)C3)cc(OC)c1CN(C)C (stereo unspecified) [US12384776, Compound D239]",> 10 nM
5,"CNC(=O)N1CCc2c(-c3cc(OC)c(CN4CCC5(CC4)CN(c4ccc6c(c4)C(=O)N(C4CCC(=O)NC4=O)C6=O)C5)c(OC)c3)cn(C)c(=O)c2C1 (stereo unspecified) [US12384776, Compound D159]",< 10 nM
6,"CNC(=O)N1CCc2c(-c3cc(OC)c(CN4CCC5C4CN5c4ccc5c(c4)C(=O)N(C4CCC(=O)NC4=O)C5=O)c(OC)c3)cn(C)c(=O)c2C1 (stereo unspecified) [US12384776, Compound D157]",< 10 nM
7,"CNC(=O)N1CCc2c(-c3cc(OC)c(CN4CCC5(C4)CN(c4ccc6c(c4)C(=O)N(C4CCC(=O)NC4=O)C6=O)C5)c(OC)c3)cn(C)c(=O)c2C1 (stereo unspecified) [US12384776, Compound D165]",< 10 nM
8,"CNC(=O)N1CCc2c(-c3cc(OC)c(CN4CCC5(CC(C#Cc6ccc7c(c6)C(=O)N(C6CCC(=O)NC6=O)C7=O)C5)C4)c(OC)c3)cn(C)c(=O)c2C1 (stereo unspecified) [US12384776, Compound D135]",< 10 nM
9,"CNC(=O)N1CCc2c(-c3cc(OC)c(CN4CCN(CCC5CCN(c6ccc7c(c6)C(=O)N(C6CCC(=O)NC6=O)C7=O)CC5)CC4C(F)(F)F)c(OC)c3)cn(C)c(=O)c2C1 (stereo unspecified) [US12384776, Compound D97]",< 10 nM
10,"COc1cc(-c2cn(C)c(=O)c3c2CCN(C(=O)NCCOCCOCCNc2cccc4c2C(=O)N(C2CCC(=O)NC2=O)C4=O)C3)cc(OC)c1CN(C)C (stereo unspecified) [US12384776, Compound D12]",> 10 nM
11,"CNC(=O)N1CCc2c(-c3cc(OC)c(CN4CCC5(CC4)CC(C#Cc4ccc6c(c4)C(=O)N(C4CCC(=O)NC4=O)C6=O)C5)c(OC)c3)cn(C)c(=O)c2C1 (stereo unspecified) [US12384776, Compound D134]",< 10 nM

# Further lines, results first:
row,DC50,SMILES
1,< 10 nM,"CNC(=O)N1CCc2c(-c3cc(OC)c(CN4CCC5CN(c6ccc7c(c6)C(=O)N(C6CCC(=O)NC6=O)C7=O)C5C4)c(OC)c3)cn(C)c(=O)c2C1 (stereo unspecified) [US12384776, Compound D166]"
2,< 10 nM,"CNC(=O)N1CCc2c(-c3cc(OC)c(CN4CCN(CCC5CCN(c6ccc7c(c6)C(=O)N(C6CCC(=O)NC6=O)C7=O)CC5)C(C)(C)C4)c(OC)c3)cn(C)c(=O)c2C1 (stereo unspecified) [US12384776, Compound D101]"
3,< 10 nM,"CNC(=O)N1CCc2c(-c3cc(OC)c(CN4CCC5(CC4)CCN(c4ccc6c(c4)C(=O)N(C4CCC(=O)NC4=O)C6=O)C5)c(OC)c3)cn(C)c(=O)c2C1 (stereo unspecified) [US12384776, Compound D163]"
4,< 10 nM,"CNC(=O)N1CCc2c(-c3cc(OC)c(CN4CC5(CC(C#Cc6ccc7c(c6)C(=O)N(C6CCC(=O)NC6=O)C7=O)C5)C4)c(OC)c3)cn(C)c(=O)c2C1 (stereo unspecified) [US12384776, Compound D133]"
5,< 10 nM,"CNC(=O)N1CCc2c(-c3cc(OC)c(CN4CC5(CCN(c6ccc7c(c6)C(=O)N(C6CCC(=O)NC6=O)C7=O)CC5)C4)c(OC)c3)cn(C)c(=O)c2C1 (stereo unspecified) [US12384776, Compound D161]"
